Like-named read-outs stand apart in the source and are kept apart here.
How the values were obtained:
HL-60 = experiment: Antiproliferative activity, resazurin assay, 72 h; type: cell-based, human
Experimental: (§1) Human cervix carcinoma (HeLa), Non-small lung adenocarcinoma (A549), Colon adenocarcinoma (HT29), and human triple negative breast cancer (MDA-MB-231) were cultured in Dulbecco’s modified Eagle’s media (DMEM). B-acute lymphoblastic leukemia (RS4;11 and SEM), T-acute lymphoblastic leukemia (Jurkat), and human promyelocytic cells (HL-60), were cultured in RPMI-1640 medium. Both media were purchased from Gibco, Life Technologies (Milan, Italy) and supplemented with 10% Fetal Bovine Serum (FBS, Invitrogen, Milan, Italy,). Every six months, each cell line was checked for the presence of mycoplasma by RT-PCR.
(§2) Stock solutions (10 mM) of the different compounds were made in DMSO. Cancer cells were seeded in tissue-treated, flat bottom, 384-well plates (Corning) according to their optimal density, (A549 1000 cells/wells; MDA-MB-231, HeLa and HT-29 2000 cells/well and finally Jurkat, HL-60 SEM and RS4;11 20.000 cells/well) in 27 µL of complete medium per well.
(§3) The day after cell seeding and immediately before cell treatment, 10 mM stock solutions of the compounds were pre-diluted to a […] concentration in 250 µL of Hank’s in a 96-well plate (Corning). Subsequent 1:5 dilutions were carried out using a microlab STAR 96-CORE liquid handling system (Hamilton), a robotized liquid handling tool that was employed for all steps, from cell seeding to drug dilution and cell treatment to ensure high reproducibility while reducing time for large screening execution. This pre-dilution step was necessary to avoid DMSO-related cytotoxicity and compound precipitation in the cell culture medium. In every case, DMSO concentration never exceeded 0.1%.
(§4) Positive (Bortezomib 1 µM) and negative (0.1% DMSO) controls were included in all the screened plates to allow for monitoring the Z’ factor throughout the entire screening. Cells were treated with 3 µL of the previously made dilutions; thus, generating a 6-point 5-fold dose–response curve starting from 10 µM. Within a plate, each drug concentration was tested in duplicate in two independent experiments for each compound.
(§5) Treated cells were then placed inside the CO2 incubator for 72 h at 37 °C. Cell viability was assessed by resazurin assay, in which 3 µL of resazurin per well were added using the previously described automated platform. Plates were placed in the incubator at 37 °C for 2 h, and then the fluorescence of each plate was read using a Spark 10 M multimode microplate reader (Tecan Group Ltd., Mannedorf, Switzerland) with 535 nm excitation wavelength and 600 nm emission wavelength.

SEM cells = experiment: Antiproliferative activity, resazurin assay, 72 h; type: cell-based, human
Experimental: as §1, §2, §3, §4, §5

MDA-MB-231 = experiment: Antiproliferative activity, resazurin assay, 72 h; type: cell-based, human
Experimental: as §1, §2, §3, §4, §5

RS 4;11 = experiment: Antiproliferative activity, resazurin assay, 72 h; type: cell-based, human
Experimental: as §1, §2, §3, §4, §5

Jurkat = experiment: Antiproliferative activity, resazurin assay, 72 h; type: cell-based, human
Experimental: as §1, §2, §3, §4, §5

HT29 = experiment: Antiproliferative activity, resazurin assay, 72 h; type: cell-based, human
Experimental: as §1, §2, §3, §4, §5

HeLa = experiment: Antiproliferative activity, resazurin assay, 72 h; type: cell-based, human
Experimental: as §1, §2, §3, §4, §5

A549 = experiment: Antiproliferative activity, resazurin assay, 72 h; type: cell-based, human
Experimental: as §1, §2, §3, §4, §5

CKα1 = target: T1, CKα1 (Homo sapiens, UniProt P35790); experiment: Choline kinase assay ([methyl-14C]choline into PCho, purified enzyme); type: biochemical; details: for IC50: concentration required to inhibit CKα1 enzyme by 50%; for % Inhibition at 10 µM: purified CKα1, inhibitor 10 µM; for % Inhibition at 10 µM / % Inhibition at 30 µM: end-point assay; for % Inhibition at 30 µM: purified CKα1, inhibitor 30 µM
T1 construct: an N-terminally His-tagged truncated form of CKα1 (Δ75–457) was cloned into a pET-28a vector; His tag (N); made in house; host or cells: E. coli BL21 (DE3) Star
T1 sequence (P35790 75-457): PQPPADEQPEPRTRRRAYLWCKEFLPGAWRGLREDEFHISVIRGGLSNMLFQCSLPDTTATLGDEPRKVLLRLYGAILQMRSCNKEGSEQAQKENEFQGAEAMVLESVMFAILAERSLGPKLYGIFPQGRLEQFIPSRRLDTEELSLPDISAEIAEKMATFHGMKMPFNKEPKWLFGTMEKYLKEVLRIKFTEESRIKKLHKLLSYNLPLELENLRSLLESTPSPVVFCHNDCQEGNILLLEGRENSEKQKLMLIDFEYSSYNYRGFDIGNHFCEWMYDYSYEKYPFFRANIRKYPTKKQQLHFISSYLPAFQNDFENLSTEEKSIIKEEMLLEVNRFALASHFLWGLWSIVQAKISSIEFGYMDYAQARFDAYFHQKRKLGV
Experimental: The protein was produced and purified as previously described. Briefly, an N-terminally His-tagged truncated form of CKα1 (Δ75–457) was cloned into a pET-28a vector and expressed at 37 °C in E. coli BL21 (DE3) Star cells using 1 mM isopropyl β-D-1-thiogalactopyranoside (IPTG). After centrifugation, the cellular pellet was resuspended in 50 mM Tris-HCl pH 7.5, 500 mM NaCl, 0.2 mM phenylmethylsulphonyl fluoride (PMSF), DNase, and 0.5 mM β-mercaptoethanol, sonicated and subjected to a two-step purification procedure to isolate the target enzyme. […] Protein elution was completed using buffer A + 400 mM imidazole. A second size-exclusion chromatography step was then carried out to achieve complete purity. To this end, we used a HiPrep 26/60 Sephacryl 100 HR column (GE Healthcare, Little Chalfont, Buckinghamshire, UK) and a 20 mM Tris/HCl pH 7.5, 150 mM NaCl running buffer.
To study the effect of the compounds on CKα, an in vitro enzymatic assay was performed using the purified enzyme as previously reported in [19, 28, 29]. Briefly, the incorporation of ^14C from [methyl-^14C]choline into PCho in either the absence (control) or presence of different inhibitors at varying concentrations was used to determine the CK activity. The reaction mixture included 20 ng of purified CKα1, 10 mM ATP, 10 mM MgCl2, 100 mM Tris-HCl pH 8.5, and increasing concentrations of compounds. The mixture was preincubated at 37 °C for 5 min. Then, [methyl-^14C]choline chloride (1 mM, 4500 dpm/nmol) was added and the reaction was left to proceed for 10 min at 37 °C. The assay was stopped by immersing the reaction tubes in boiling water. PCho was separated by Thin Layer Chromatography using methanol/0.6% NaCl/28% NH4OH in water (50:50:5, v/v/v) as solvent. The radioactivity associated into PCho was determined in a Beckman 6000-TA (Madrid, Spain) liquid scintillation counter. The 50% inhibitory concentrations (IC50 values) were determined from the % enzyme activity at different concentrations of synthetic inhibitors relative to the control by using a sigmoidal dose–response curve (ED50plus v1.0 software).

SMILES	GI50 (HL-60)	GI50 (SEM cells)	GI50 (MDA-MB-231)	GI50 (RS 4;11)	GI50 (Jurkat)	GI50 (HT29)	GI50 (HeLa)	GI50 (A549)	IC50 (CKα1)	% Inhibition at 10 µM (CKα1)	% Inhibition at 30 µM (CKα1)	IC50 (CKα1; listed as Fa-34)	GI50 (HL-60; Homo sapiens, HL-60)	GI50 (MDA-MB-231; Homo sapiens, MDA-MB-231)	GI50 (RS 4;11; Homo sapiens, RS4-11)	GI50 (Jurkat; Homo sapiens, Jurkat)	GI50 (HT29; Homo sapiens, HT-29)	GI50 (HeLa; Homo sapiens, HeLa)	GI50 (A549; Homo sapiens, A549)
[Br-].[Br-].c1cc2c(N3CCCCCC3)nc[n+](Cc3ccc(CCCCc4ccc(C[n+]5cnc(N6CCCCCC6)c6ccsc65)cc4)cc3)c2s1 [Ff-35, ((1,1′-((butane-1,4-diylbis(4,1-phenylene))bis(methylene))bis(4-(azepan-1-yl)thieno[2,3-d]pyrimidin-1-ium)) bromide]	0.15 ± 0.01 µM	0.76 ± 0.03 µM	0.097 ± 0.001 µM	0.95 ± 0.05 µM	1.54 ± 0.02 µM	0.78 ± 0.03 µM	0.3 ± 0.01 µM	0.14 ± 0.02 µM	0.46 ± 0.08 µM										
[Br-].[Br-].c1cc2c(N3CCCCC3)nc[n+](Cc3ccc(CCc4ccc(C[n+]5cnc(N6CCCCC6)c6ccsc65)cc4)cc3)c2s1 [Fg-31]	0.76 ± 0.05 µM	> 10 µM	1.09 ± 0.1 µM	7.2 ± 1 µM	> 10 µM	4.5 ± 0.4 µM	1.4 ± 0.02 µM	1.17 ± 0.01 µM	≥ 10 µM	51.54%	74.39%								
[Br-].[Br-].c1cc2c(s1)c(N1CCCC1)cc[n+]2Cc1ccc(CCc2ccc(C[n+]3ccc(N4CCCC4)c4sccc43)cc2)cc1 [Fg-11]	0.47 ± 0.03 µM	> 10 µM	0.68 ± 0.07 µM	5.72 ± 0.5 µM	8.53 ± 1.1 µM	3.65 ± 0.5 µM	2.19 ± 0.3 µM	0.39 ± 0.04 µM	2.33 ± 0.2 µM	93.07%	94.25%								
CN(c1ccc(Cl)cc1)c1nc[n+](Cc2ccc(-c3ccc(C[n+]4cnc(N(C)c5ccc(Cl)cc5)c5ccsc54)cc3)cc2)c2sccc12 [Fp-8]	0.9 ± 0.08 µM	> 10 µM	0.83 ± 0.04 µM	3.38 ± 0.05 µM	> 10 µM	3.93 ± 0.5 µM	1.77 ± 0.1 µM	0.16 ± 0.01 µM											
[Br-].[Br-].c1cc2c(s1)c(N1CCCCCC1)cc[n+]2Cc1ccc(-c2ccc(C[n+]3ccc(N4CCCCCC4)c4sccc43)cc2)cc1 [Fg-10]	0.44 ± 0.05 µM	3.51 ± 0.8 µM	1.46 ± 0.2 µM	2.77 ± 0.9 µM	6.33 ± 0.6 µM	1.76 ± 0.2 µM	1.59 ± 0.1 µM	0.31 ± 0.01 µM	≥ 10 µM	80.76%	96.98%								
[Br-].[Br-].c1cc2c(s1)c(N1CCCC1)nc[n+]2Cc1ccc(OCCOc2ccc(C[n+]3cnc(N4CCCC4)c4sccc43)cc2)cc1 [Ff-8]	0.55 ± 0.02 µM	> 10 µM	0.32 ± 0.05 µM	3.47 ± 0.3 µM	> 10 µM	1.89 ± 0.2 µM	0.91 ± 0.09 µM	0.29 ± 0.3 µM		79.23%	92.88%								
[Br-].[Br-].c1cc2c(N3CCCCC3)nc[n+](Cc3ccc(OCCOc4ccc(C[n+]5cnc(N6CCCCC6)c6ccsc65)cc4)cc3)c2s1 [Ff-5]	0.2 ± 0.01 µM	3.27 ± 0.03 µM	1.1 ± 0.2 µM	2.45 ± 0.02 µM	> 10 µM	1.73 ± 0.3 µM	1.03 ± 0.1 µM	0.34 ± 0.06 µM	≥ 5 µM	64.21%	85.71%								
[Br-].[Br-].c1cc2c(s1)c(N1CCCCCC1)nc[n+]2Cc1ccc(OCCOc2ccc(C[n+]3cnc(N4CCCCCC4)c4sccc43)cc2)cc1 [Ff-34]	0.27 ± 0.01 µM	2.5 ± 0.1 µM	0.91 ± 0.08 µM	1.8 ± 0.1 µM	6.1 ± 1.1 µM	1.63 ± 0.1 µM	0.93 ± 0.01 µM	0.29 ± 0.03 µM	0.7 ± 0.03 µM	94.31%	99.02%	0.704 µM							
[Br-].[Br-].c1cc2c(N3CCCCC3)nc[n+](Cc3ccc(-c4ccc(C[n+]5cnc(N6CCCCC6)c6ccsc65)cc4)cc3)c2s1 [Fg-30]		> 10 µM	0.8 ± 0.02 µM	> 10 µM	> 10 µM	8.32 ± 0.9 µM	2.89 ± 0.3 µM	0.6 ± 0.02 µM	≥ 5 µM	75.46%	85.71%								
CN(C)c1cc[n+](Cc2ccc(CCCCc3ccc(C[n+]4ccc(N(C)C)cc4)cc3)cc2)cc1 [MN-48b, reference compound]	0.32 ± 0.03 µM		0.31 ± 0.12 µM	1 ± 0.3 µM	0.35 ± 0.1 µM	1.9 ± 0.4 µM	1.9 ± 0.1 µM	0.54 ± 0.2 µM	0.78 ± 0.03 µM										
C/[N+](c1ccc(Cl)cc1)=c1\ccn(Cc2ccc(-c3ccc(Cn4cc/c(=[N+](/C)c5ccc(Cl)cc5)c5ccccc54)cc3)cc2)c2ccccc12 [RSM-932A, reference compound]													0.93 ± 0.1 µM	0.17 ± 0.05 µM	0.17 ± 0.04 µM	0.41 ± 0.1 µM	0.4 ± 0.2 µM	0.83 ± 0.1 µM	0.45 ± 0.09 µM
